# Experimental data taken from US5470854A, “2-phenylbenzo[B]furans, process for their manufacture and pharmaceutical preparations containing them” (Schering Aktiengesellschaft, priority 1991, dated 1995).
# Experiments:
# uterus of infantile mice [1] = experiment: Uterotrophic test (in-vivo test on infantile mice); conditions: uterus dry weight (mg)/body weight (g) × 100
# Experimental: (§1) The effectiveness of these compounds was found in an in-vivo test on infantile mice. This test is extensively described in Cancer Treatment Reviews 1984, 11, 147, and J. Med. Chem., 1984, 27, 1439.
# (§2) ^a dosage/animal, administered s.c. on three consecutive days in oliv
# (§3) ^b uterus dry weight (mg)/body weight (g) × 100, determined 24
# (§4) hours after the final injection.
# oestrogen receptor = target: T1, oestrogen receptor (Bos taurus, UniProt P49884); experiment: Relative bonding affinity to the oestrogen receptor (competition with 3H-17β-Estradiol); assay type: binding, calf; conditions: for RBA* (relative bonding affinity to the oestrogen receptor): calves' uteri, in relation to 17β-estradiol = 100
# T1 construct: oestrogen receptor of a calf's uterus; from tissue; host or cells: calf uterus
# T1 sequence (P49884 1-596): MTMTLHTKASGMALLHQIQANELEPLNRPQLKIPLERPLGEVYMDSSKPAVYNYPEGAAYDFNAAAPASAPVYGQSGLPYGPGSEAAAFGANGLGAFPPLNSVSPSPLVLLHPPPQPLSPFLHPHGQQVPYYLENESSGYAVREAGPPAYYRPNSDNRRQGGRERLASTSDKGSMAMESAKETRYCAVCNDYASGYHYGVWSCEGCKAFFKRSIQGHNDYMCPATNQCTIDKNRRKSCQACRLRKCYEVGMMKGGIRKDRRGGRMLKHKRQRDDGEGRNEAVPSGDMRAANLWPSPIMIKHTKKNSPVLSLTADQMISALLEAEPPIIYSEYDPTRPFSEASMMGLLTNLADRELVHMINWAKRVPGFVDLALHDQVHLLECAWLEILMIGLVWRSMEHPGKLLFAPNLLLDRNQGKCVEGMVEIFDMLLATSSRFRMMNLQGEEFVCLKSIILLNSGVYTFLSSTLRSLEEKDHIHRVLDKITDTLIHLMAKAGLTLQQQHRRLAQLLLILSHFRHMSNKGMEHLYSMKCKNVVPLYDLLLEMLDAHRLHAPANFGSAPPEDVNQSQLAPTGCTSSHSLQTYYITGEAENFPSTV
# From the text: The test methodology is described in Cancer Treatment Reviews 1984, 11, 147.
# *Relative bonding affinities to the oestrogen receptor of calves' uteri,
# in relation to 17β-estradiol = 100
# [2] = test system: human MCF-7 mamma carcinoma cells; experiment: Effect on cell growth of MCF-7 cells; assay type: cell-based; conditions: for activity at 10 µM / activity at 1 µM / activity at 0.1 µM / activity at 5 µM: Homo sapiens, MCF7, mean of 16 individual results, read-out: T/C (corrected); for activity at 10 µM: 1 × 10^-5 M; for activity at 1 µM: 1 × 10^-6 M; for activity at 0.1 µM: 1 × 10^-7 M; for activity at 5 µM: 5 × 10^-6 M
# uterus of infantile mice [3] = experiment: Anti-uterotrophic test (in-vivo test on infantile mice); conditions: simultaneous 0.4 μg oestron/animal/day; for anti-uterotrophic test, effect: uterus dry weight (mg)/body weight (g) × 100
# Experimental: as §1, §2, §3, §4
# ^c simultaneous administration of 0.4 μg oestron/animal/day.
# [4] = 1 μg/animal s.c. on three consecutive days
# [5] = 5 μg/animal s.c. on three consecutive days
# [6] = 25 μg/animal s.c. on three consecutive days
# [7] = 125 μg/animal s.c. on three consecutive days
RBA* (relative bonding affinity to the oestrogen receptor) (oestrogen receptor),SMILES,"uterotrophic test, effect (uterus of infantile mice [1]; [4])","uterotrophic test, effect (uterus of infantile mice [1]; [5])","uterotrophic test, effect (uterus of infantile mice [1]; [6])","uterotrophic test, effect (uterus of infantile mice [1]; [7])",activity at 10 µM [2],activity at 1 µM [2],activity at 0.1 µM [2],activity at 5 µM [2],"anti-uterotrophic test, inhibition (uterus of infantile mice [3]; 5 μg/animal s.c.)","anti-uterotrophic test, inhibition (uterus of infantile mice [3]; 25 μg/animal s.c.)","anti-uterotrophic test, effect (uterus of infantile mice [3]; 5 μg/animal s.c.)","anti-uterotrophic test, effect (uterus of infantile mice [3]; 25 μg/animal s.c.)","anti-uterotrophic test, effect (uterus of infantile mice [3]; 125 μg/animal s.c.)","anti-uterotrophic test, inhibition (uterus of infantile mice [3]; 125 μg/animal s.c.)","effect on the growth of MCF-7 / hormone-dependent tumour cells, in words [2]",also measured
"5,4","Oc1ccc(-c2oc3cc(O)ccc3c2CCCCCCN2CCCCC2)cc1 [Compound 68b, 6-hydroxy-2-(4-hydroxyphenyl)-3-(6-N-piperidylhexyl)benzo[b]furan]",18.3 ± 1.9 mg/g × 100,18.8 ± 3.0 mg/g × 100,24.4 ± 3.8 mg/g × 100,21.4 ± 3.7 mg/g × 100,-9.6 ± 2.9%,42.9 ± 7.7%,58.7 ± 17.1%,12.1 ± 5.4%,10%,7%,58.6 ± 7.1 mg/g × 100,59.9 ± 6.6 mg/g × 100,68.7 ± 9.9 mg/g × 100,–,–,–
"0,6","CCc1c(-c2ccc(O)cc2)oc2cc(O)ccc12 [Compound 62b, 3-ethyl-6-hydroxy-2-(4-hydroxyphenyl)benzo[b]furan]",12.9 ± 2.5 mg/g × 100,14.5 ± 3.7 mg/g × 100,17.0 ± 3.3 mg/g × 100,18.3 ± 6.3 mg/g × 100,–,–,–,–,–,–,60.3 ± 5.8 mg/g × 100,56.9 ± 7.1 mg/g × 100,49.8 ± 7.9 mg/g × 100,12%,–,–
"59,6","CCc1c(-c2ccc(O)cc2)sc2ccc(O)cc12 [Compound 104a, 3-ethyl-5-hydroxy-2-(4-hydroxyphenyl)benzo[b]thiophen]",30.3 ± 7.7 mg/g × 100,38.5 ± 5.4 mg/g × 100,44.2 ± 6.6 mg/g × 100,19.6 ± 5.2 mg/g × 100,3.2 ± 3.2%,59.1 ± 15.9%,61.2 ± 22.1%,2.4 ± 3.9%,27%,–,37.0 ± 3.4 mg/g × 100,44.1 ± 6.7 mg/g × 100,36.3 ± 4.0 mg/g × 100,30%,strongly inhibiting effect,"uterotrophic test, effect (uterus of infantile mice [1]; 0.2 μg/animal s.c. on three consecutive days, 24 hours after final injection): 27.6 ± 3.8 mg/g × 100; affinity to the oestrogen (estradiol) receptor, in words (oestrogen receptor): greatest affinity in relation to estradiol; anti-uterotrophic test, inhibition (uterus of infantile mice [3]; 1 μg/animal s.c.): 32%; anti-uterotrophic test, effect (uterus of infantile mice [3]; 0.2 μg/animal s.c.): 49.8 ± 1.4 mg/g × 100; anti-uterotrophic test, effect (uterus of infantile mice [3]; 1 μg/animal s.c.): 35.3 ± 7.3 mg/g × 100"
"4,3","Oc1ccc(-c2oc3ccc(O)cc3c2CCCCCCN2CCCCC2)cc1 [Compound 68a, 5-hydroxy-2-(4-hydroxyphenyl)-3-(6-N-piperidylhexyl)benzo[b]furan]",16.1 ± 2.1 mg/g × 100,17.3 ± 2.9 mg/g × 100,15.8 ± 1.9 mg/g × 100,17.3 ± 3.2 mg/g × 100,-9.9 ± 1.8%,51.6 ± 10.2%,64.4 ± 12%,10.4 ± 4.8%,55%,56%,38.1 ± 7.5 mg/g × 100,37.6 ± 6.2 mg/g × 100,41.8 ± 6.4 mg/g × 100,48%,strongly inhibiting effect,–
"15,7","CCc1c(-c2ccc(O)cc2)oc2ccc(O)cc12 [Compound 62a, 3-ethyl-5-hydroxy-2-(4-hydroxyphenyl)benzo[b]furan]",10.5 ± 1.9 mg/g × 100,14.6 ± 2.4 mg/g × 100,19.0 ± 4.4 mg/g × 100,–,-0.2 ± 2.9%,49 ± 12.6%,65 ± 13.5%,0.3 ± 3.8%,10%,22%,39.1 ± 4.2 mg/g × 100,35.6 ± 2.6 mg/g × 100,–,–,strongly inhibiting effect,"affinity to the oestrogen (estradiol) receptor, in words (oestrogen receptor): greatest affinity in relation to estradiol; anti-uterotrophic test, effect (uterus of infantile mice [3]; 1 μg/animal s.c.): 44.2 ± 7.8 mg/g × 100"
"7,1","Oc1ccc(-c2sc3cc(O)ccc3c2CCCCCCN2CCCCC2)cc1 [Compound 119b, 6-hydroxy-2-(4-hydroxyphenyl)-3-(6-N-piperidinylhexyl)benzo[b]thiophen]",19.8 ± 3.1 mg/g × 100,20.7 ± 5.0 mg/g × 100,19.4 ± 2.1 mg/g × 100,34.2 ± 9.5 mg/g × 100,-13.5 ± 3.2%,48.1 ± 12.4%,18.8 ± 7.2%,2 ± 3.6%,73%,65%,26.1 ± 5.4 mg/g × 100,22.8 ± 2.6 mg/g × 100,30.0 ± 5.6 mg/g × 100,61%,strongly inhibiting effect,–
–,"CC/C(=C(\c1ccccc1)c1ccc(OCCN(C)C)cc1)c1ccccc1 [Tam, Tamoxifen, reference compound]",–,–,–,–,-5.7 ± 3.4%,59.1 ± 14.1%,56.5 ± 16.3%,–,–,–,–,–,–,–,–,–
"1,7","CCCc1c(-c2ccc(O)cc2)oc2cc(O)ccc12 [Compound 63b, 6-hydroxy-2-(4-hydroxyphenyl)-3-propylbenzo[b]furan]",–,–,–,–,–,–,–,–,–,–,–,–,–,–,–,–
"20,0","CCCc1c(-c2ccc(O)cc2)oc2ccc(O)cc12 [Compound 63a, 5-hydroxy-2-(4-hydroxyphenyl)-3-propylbenzo[b]furan]",–,–,–,–,-2.1 ± 2.8%,50.5 ± 8.8%,51 ± 11.3%,-0.1 ± 3.6%,–,–,–,–,–,–,strongly inhibiting effect,"affinity to the oestrogen (estradiol) receptor, in words (oestrogen receptor): greatest affinity in relation to estradiol"
"0,2","Cc1c(-c2ccc(O)cc2)oc2cc(O)ccc12 [Compound 61b, 6-hydroxy-2-(4-hydroxyphenyl)-3-methylbenzo[b]furan]",–,–,–,–,–,–,–,–,–,–,–,–,–,–,–,–
"2,0",Cc1c(-c2ccc(O)cc2)oc2ccc(O)cc12 [Compound 61a],–,–,–,–,13.3 ± 5.3%,78.1 ± 17.2%,72.3 ± 18.2%,37.7 ± 11.9%,–,–,–,–,–,–,strongly inhibiting effect,–
"1,6","CCCCc1c(-c2ccc(O)cc2)oc2ccc(O)cc12 [Compound 64a, 3-butyl-5-hydroxy-2-(4-hydroxyphenyl)benzo[b]furan]",–,–,–,–,–,–,–,–,–,–,–,–,–,–,–,–
"0,6","CCCCc1c(-c2ccc(O)cc2)oc2cc(O)ccc12 [Compound 64b, 3-butyl-6-hydroxy-2-(4-hydroxyphenyl)benzo[b]furan]",–,–,–,–,–,–,–,–,–,–,–,–,–,–,–,–
